# Measurements published in ChEMBL document CHEMBL1201862, “PubChem BioAssay data set” (2004).
#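 Exposure lasted 48 hours, with cells grown in 96-well plates and compounds tested at five concentrations. GI50 is the concentration that inhibits growth by half.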 Activity calls are given as the source filed them. Rule as the data show it: active = GI50 up to about 1.1 µM and inactive = higher.
# Legend:
# Experiment in all cases: DTP human tumour cell line panel, 48 h
# 786-0 = test system: 786-0
# A498 = test system: A498
# ACHN = test system: ACHN
# CAKI-1 = test system: CAKI-1
# CCRF-CEM = test system: CCRF-CEM
# COLO 205 = test system: COLO 205
# DLD-1 = test system: DLD-1
# DMS-114 = test system: DMS-114
# DMS-273 = test system: DMS-273
# EKVX = test system: EKVX
# HCC 2998 = test system: HCC 2998
# HCT-15 = test system: HCT-15
# HL-60 = test system: HL-60
# HOP-18 = test system: HOP-18
# HOP-62 = test system: HOP-62
# HOP-92 = test system: HOP-92
# HT-29 = test system: HT-29
# IGROV-1 = test system: IGROV-1
# K562 = test system: K562
# KM-20L2 = test system: KM-20L2
# KM12 = test system: KM12
# LOX IMVI = test system: LOX IMVI
# LXFL 529 = test system: LXFL 529
# M14 = test system: M14
# M19-MEL = test system: M19-MEL
# MOLT-4 = test system: MOLT-4
# Malme-3M = test system: Malme-3M
# NCI-H226 = test system: NCI-H226
# NCI-H23 = test system: NCI-H23
# NCI-H460 = test system: NCI-H460
# NCI-H522 = test system: NCI-H522
# OVCAR-3 = test system: OVCAR-3
# OVCAR-4 = test system: OVCAR-4
# OVCAR-5 = test system: OVCAR-5
# OVCAR-8 = test system: OVCAR-8
# SF-268 = test system: SF-268
# SF-295 = test system: SF-295
# SF-539 = test system: SF-539
# SK-MEL-28 = test system: SK-MEL-28
# SK-MEL-2 = test system: SK-MEL-2
# SK-MEL-5 = test system: SK-MEL-5
# SK-OV-3 = test system: SK-OV-3
# SN12C = test system: SN12C
# SNB-19 = test system: SNB-19
# SNB-75 = test system: SNB-75
# SNB-78 = test system: SNB-78
# SR = test system: SR
# SW-620 = test system: SW-620
# TK-10 = test system: TK-10
# U-251 = test system: U-251
# UACC-257 = test system: UACC-257
# UACC-62 = test system: UACC-62
# UO-31 = test system: UO-31
# A549 = test system: A549
# HCT-116 = test system: HCT-116
# MCF7 = test system: MCF7
# NCI/ADR-RES = test system: NCI/ADR-RES
# RPMI-8226 = test system: RPMI-8226
# XF498 = test system: XF498
# RXF 393 = test system: RXF 393
compound,measurement,setting,value
O=C(/C=C/c1ccco1)c1ccc(NCc2nc3ccccc3[nH]2)cc1,GI50,786-0,14.6 µM (inactive)
same,GI50,A498,14.4 µM (inactive)
same,GI50,ACHN,17.5 µM (inactive)
same,GI50,CAKI-1,17.2 µM (inactive)
same,GI50,CCRF-CEM,13 µM (inactive)
same,GI50,COLO 205,13.5 µM (inactive)
same,GI50,DLD-1,15 µM (inactive)
same,GI50,DMS-114,12 µM (inactive)
same,GI50,DMS-273,17.5 µM (inactive)
same,GI50,EKVX,14.6 µM (inactive)
same,GI50,HCC 2998,14.6 µM (inactive)
same,GI50,HCT-15,15 µM
same,GI50,HL-60,13 µM (inactive)
same,GI50,HOP-18,20.9 µM (inactive)
same,GI50,HOP-62,19.1 µM (inactive)
same,GI50,HOP-92,12.2 µM (inactive)
same,GI50,HT-29,19.8 µM (inactive)
same,GI50,IGROV-1,18.1 µM (inactive)
same,GI50,K562,15.2 µM (inactive)
same,GI50,KM-20L2,18.7 µM (inactive)
same,GI50,KM12,10.3 µM (inactive)
same,GI50,LOX IMVI,12.2 µM (inactive)
same,GI50,LXFL 529,14.3 µM (inactive)
same,GI50,M14,16.9 µM (inactive)
same,GI50,M19-MEL,14.9 µM (inactive)
same,GI50,MOLT-4,10.4 µM (inactive)
same,GI50,Malme-3M,19 µM (inactive)
same,GI50,NCI-H226,1.73 µM (inactive)
same,GI50,NCI-H23,13.5 µM (inactive)
same,GI50,NCI-H460,23.3 µM (inactive)
same,GI50,NCI-H522,9.62 µM (inactive)
same,GI50,OVCAR-3,16.6 µM (inactive)
same,GI50,OVCAR-4,19.2 µM (inactive)
same,GI50,OVCAR-5,17.7 µM (inactive)
same,GI50,OVCAR-8,17.9 µM (inactive)
same,GI50,SF-268,20 µM (inactive)
same,GI50,SF-295,15.6 µM (inactive)
same,GI50,SF-539,18 µM (inactive)
same,GI50,SK-MEL-28,18 µM (inactive)
same,GI50,SK-MEL-2,19.1 µM (inactive)
same,GI50,SK-MEL-5,14.8 µM (inactive)
same,GI50,SK-OV-3,18.3 µM (inactive)
same,GI50,SN12C,17.2 µM (inactive)
same,GI50,SNB-19,15.6 µM (inactive)
same,GI50,SNB-75,15.8 µM (inactive)
same,GI50,SNB-78,21.3 µM (inactive)
same,GI50,SR,10.8 µM (inactive)
same,GI50,SW-620,16 µM (inactive)
same,GI50,TK-10,17.9 µM (inactive)
same,GI50,U-251,10.9 µM (inactive)
same,GI50,UACC-257,11.1 µM (inactive)
same,GI50,UACC-62,14 µM (inactive)
same,GI50,UO-31,13.8 µM (inactive)
Cc1ccc(N2C(=O)C3CSCN3C2=O)cc1 (stereo not drawn),GI50,A498,> 100 µM (inactive)
same,GI50,A549,> 100 µM (inactive)
same,GI50,CAKI-1,> 100 µM (inactive)
same,GI50,CCRF-CEM,> 100 µM (inactive)
same,GI50,COLO 205,> 100 µM (inactive)
same,GI50,DLD-1,> 100 µM (inactive)
same,GI50,DMS-114,> 100 µM (inactive)
same,GI50,EKVX,> 100 µM (inactive)
same,GI50,HCC 2998,> 100 µM (inactive)
same,GI50,HCT-116,2.46 µM (inactive)
same,GI50,HCT-15,> 100 µM
same,GI50,HL-60,> 100 µM (inactive)
same,GI50,HOP-18,> 100 µM (inactive)
same,GI50,HOP-62,> 100 µM (inactive)
same,GI50,HOP-92,> 100 µM (inactive)
same,GI50,HT-29,> 100 µM (inactive)
same,GI50,IGROV-1,> 100 µM (inactive)
same,GI50,K562,> 100 µM (inactive)
same,GI50,KM12,> 100 µM (inactive)
same,GI50,LOX IMVI,> 100 µM (inactive)
same,GI50,M19-MEL,> 100 µM (inactive)
same,GI50,MCF7,> 100 µM (inactive)
same,GI50,MOLT-4,> 100 µM (inactive)
same,GI50,NCI-H226,> 100 µM (inactive)
same,GI50,NCI-H23,> 100 µM (inactive)
same,GI50,NCI-H460,> 100 µM (inactive)
same,GI50,NCI-H522,> 100 µM (inactive)
same,GI50,NCI/ADR-RES,> 100 µM (inactive)
same,GI50,OVCAR-3,> 100 µM (inactive)
same,GI50,OVCAR-4,> 100 µM (inactive)
same,GI50,OVCAR-5,> 100 µM (inactive)
same,GI50,OVCAR-8,> 100 µM (inactive)
same,GI50,RPMI-8226,> 100 µM (inactive)
same,GI50,SF-268,> 100 µM (inactive)
same,GI50,SF-295,> 100 µM (inactive)
same,GI50,SF-539,> 100 µM (inactive)
same,GI50,SK-MEL-28,15.8 µM (inactive)
same,GI50,SK-MEL-2,> 100 µM (inactive)
same,GI50,SK-MEL-5,> 100 µM (inactive)
same,GI50,SK-OV-3,> 100 µM (inactive)
same,GI50,SN12C,> 100 µM (inactive)
same,GI50,SNB-19,> 100 µM (inactive)
same,GI50,SNB-75,> 100 µM (inactive)
same,GI50,SW-620,> 100 µM (inactive)
same,GI50,U-251,> 100 µM (inactive)
same,GI50,UACC-257,> 100 µM (inactive)
same,GI50,UACC-62,> 100 µM (inactive)
same,GI50,UO-31,> 100 µM (inactive)
same,GI50,XF498,> 100 µM (inactive)
O=C(/C=C/c1ccccc1Cl)c1ccc(Cl)c(Cl)c1,GI50,786-0,16.3 µM (inactive)
same,GI50,A498,15.9 µM (inactive)
same,GI50,A549,19.5 µM (inactive)
same,GI50,ACHN,15.3 µM (inactive)
same,GI50,CAKI-1,15.4 µM (inactive)
same,GI50,CCRF-CEM,26.4 µM (inactive)
same,GI50,COLO 205,> 100 µM (inactive)
same,GI50,DLD-1,15.8 µM (inactive)
same,GI50,DMS-273,19.9 µM (inactive)
same,GI50,EKVX,14.5 µM (inactive)
same,GI50,HCC 2998,15.5 µM (inactive)
same,GI50,HCT-116,11.5 µM (inactive)
same,GI50,HCT-15,15.7 µM
same,GI50,HL-60,25.8 µM (inactive)
same,GI50,HOP-18,14.8 µM (inactive)
same,GI50,HOP-62,23 µM (inactive)
same,GI50,HOP-92,26.9 µM (inactive)
same,GI50,HT-29,19.8 µM (inactive)
same,GI50,IGROV-1,12.4 µM (inactive)
same,GI50,K562,26.8 µM (inactive)
same,GI50,KM-20L2,17.3 µM (inactive)
same,GI50,KM12,15.8 µM (inactive)
same,GI50,LOX IMVI,14.6 µM (inactive)
same,GI50,LXFL 529,16.1 µM (inactive)
same,GI50,M14,17.5 µM (inactive)
same,GI50,M19-MEL,16.3 µM (inactive)
same,GI50,MOLT-4,21.3 µM (inactive)
same,GI50,Malme-3M,22.8 µM (inactive)
same,GI50,NCI-H226,> 100 µM (inactive)
same,GI50,NCI-H23,20 µM (inactive)
same,GI50,NCI-H460,34.5 µM (inactive)
same,GI50,NCI-H522,17.3 µM (inactive)
same,GI50,OVCAR-3,15.4 µM (inactive)
same,GI50,OVCAR-4,12.9 µM (inactive)
same,GI50,OVCAR-5,17.6 µM (inactive)
same,GI50,OVCAR-8,17.7 µM (inactive)
same,GI50,RPMI-8226,37.7 µM (inactive)
same,GI50,RXF 393,13.1 µM (inactive)
same,GI50,SF-268,18.3 µM (inactive)
same,GI50,SF-295,17.3 µM (inactive)
same,GI50,SF-539,18.2 µM (inactive)
same,GI50,SK-MEL-28,20.2 µM (inactive)
same,GI50,SK-MEL-2,18 µM (inactive)
same,GI50,SK-MEL-5,18.9 µM (inactive)
same,GI50,SK-OV-3,24.5 µM (inactive)
same,GI50,SN12C,> 100 µM (inactive)
same,GI50,SNB-19,16.4 µM (inactive)
same,GI50,SNB-75,13 µM (inactive)
same,GI50,SNB-78,16.2 µM (inactive)
same,GI50,SR,21.7 µM (inactive)
same,GI50,SW-620,15.1 µM (inactive)
same,GI50,TK-10,18.5 µM (inactive)
same,GI50,U-251,17.3 µM (inactive)
same,GI50,UACC-257,19.7 µM (inactive)
same,GI50,UACC-62,19.1 µM (inactive)
same,GI50,UO-31,17.1 µM (inactive)
